Patent US20240360101A1, “PHARMACEUTICAL SALTS OF A CHK-1 INHIBITOR” (SENTINEL ONCOLOGY LIMITED, priority 2021, published 2024)

What was measured:
[1] = Solubility of the salts in biorelevant media; format: physicochemical; details: 25° C., 24 h, HPLC; for solubility FaSSGF (pH 1.37): Fasted State Simulated Gastric Fluid; for solubility FaSSIF (pH 6.71): Fasted State Simulated Intestinal Fluid; for solubility FeSSIF (pH 5.14): Fed State Simulated Intestinal Fluid
Procedure: Biorelevant media (DI H2O, FeSSIF, FaSSIF and FaSSGF) (2 mL) was charged. Samples were left to equilibrate (25° C.) over 24 h. Solubility measurements were taken using HPLC (see Method 1 above).

MIA PaCa-2 cells = assay: Gemcitabine combination cell assay; format: cell-based
Procedure: Exponentially growing MIA PaCa-2 (ATCC CRL-1420) cells are treated with trypsin to remove cells from the plate surface. Approximately 10,000 cells/well are plated in 96 well plates in RPMI containing 10% fetal bovine serum, 1% sodium pyruvate and 1% L-GlutaMax. Cells are allowed to adhere to the plate surface overnight. Serial half-log dilutions of Chk1 inhibitor test compounds and gemcitabine are made with a final highest concentration of 3000 nM and 100 nM, respectively. Chk1 inhibitors and gemcitabine are combined so that each concentration of Chk1 inhibitor is added to each concentration of gemcitabine. Each drug is also tested as a single agent. Drugs are added to adherent cells (in duplicate) and incubated for 72h. At 72h the cells are treated with Promega Cell Titer Glo reagent for approximately 15 minutes. Luminescence (relative light units, RLU) is recorded using a BMG Polarstar Omega plate reader. The single agent concentration that results in a 50% reduction in total signal (IC50) is calculated using PRISM software and a four-parameter non-linear regression curve fit. For combination studies the RLUs are plotted using PRISM on an XY plot with the gemcitabine concentration on the X axis and RLU on the Y axis. The RLU for each concentration of Chk1 inhibitor is plotted as a function of gemcitabine concentration. The IC50 for gemcitabine alone and at each concentration of Chk1 is determined using a four-parameter non-linear regression curve fit. The approximate concentration of Chk1 inhibitor that results in a two and ten-fold reduction in the IC50 of gemcitabine alone is calculated as an indication of synergistic potency.

[2] = Gravimetric vapour sorption (GVS); format: physicochemical; details: for GVS weight loss, initial desorption cycle: from 50% RH to 0% RH; for GVS weight loss, initial desorption cycle / GVS water gain, subsequent sorption cycle: 25° C.; for GVS water gain, subsequent sorption cycle: up to 90% RH
Procedure: Sorption isotherms were obtained using a Hiden Isochema moisture sorption analyser (model IGAsorp), controlled by IGAsorp Systems Software V6.50.48. The sample was maintained at a constant temperature (25° C.) by the instrument controls. The humidity was controlled by mixing streams of dry and wet nitrogen, with a total flow of 250 ml·min−. The instrument was verified for relative humidity (RH) content by measuring three calibrated Rotronic salt solutions (10-50-88%). The weight change of the sample was monitored as a function of humidity by a microbalance (accuracy+/−0.005 mg). A defined amount of sample was placed in a tared mesh stainless steel basket under ambient conditions. A full experimental cycle typically consisted of three scans (sorption, desorption and sorption) at a constant temperature (25° C.) and 10% RH intervals over a 0-90% range (60 minutes for each humidity level).

[3] = Two-week stability (HPLC purity); format: physicochemical
Procedure: HPLC analysis was carried out on an Agilent 1110/1200 series HPLC system. The column used was an Triart C18; 150×4.6 mm, 3.0 μm particle size (Ex Waters, PN: 186004644). The flow rate was 1.0 mL/min. Mobile phase A was Water:Trifluoroacetic acid (100:0.1%) and mobile phase B was Acetonitrile:Trifluoroacetic acid (100:0.1%). Detection was by UV at 302 nm. The injection volume was 5 μL, column temperature 40° C. and the following gradient was used: […]
Experimental: Maleate salt pattern B (30 mg) was placed into separate 15 mL type I glass vials. To these vials, a HDPE plastic cap was loosely attached to allow the ingress of moisture. The vials were then placed into ICH rated stability cabinets at 25° C./60% RH and 40° C./75% RH and in cold storage at 2-8° C. Following 2 weeks of storage these samples were removed from the stability cabinets and cold storage and the chemical purity assessed by HPLC (method 2). The relevant data was collected using a wavelength of 302 nm. The samples were prepared in MeCN:water (1:1).

[4] = Dynamic vapour sorption (DVS) analysis of maleate salt Pattern B; format: physicochemical
Procedure: A defined amount of the maleate salt Pattern B was placed in a tared mesh stainless steel basket under ambient conditions. A full experimental cycle consisted of […] (desorption, sorption repeat and desorption) at a constant temperature (25° C.) and 10% RH intervals over a 0-90% range (60 minutes for each humidity level).
Post cycle, the material was isolated at 0% RH and tested for crystallinity and then held at 90% RH for a minimum of 3 hours and re-tested for changes in crystallinity.

## COc1cc(C2(F)CCN(C)CC2)ccc1-c1cc(Nc2cnc(C#N)cn2)n[nH]1 [compound of formula (1), 5-[[5-[4-(4-fluoro-1-methyl-4-piperidyl)-2-methoxy-phenyl]-1H-pyrazol-3-yl]amino]pyrazine-2-carbonitrile]
[1]; listed as free base
  solubility FaSSGF (pH 1.37): 2.93 mg/mL
  solubility FaSSIF (pH 6.71): 0.04 mg/mL
  solubility FeSSIF (pH 5.14): 0.6 mg/mL
other
  Aqueous solubility mg/mL 24 h: 0.39 mg/mL
MIA PaCa-2 cells; Homo sapiens, compound alone, MIA PaCa-2 cells, 72h, Cell Titer Glo, read-out: Chk1 IC50
  IC50: 144 nM
MIA PaCa-2 cells; approximate concentration giving a 10-fold reduction in the IC50 of gemcitabine alone, MIA PaCa-2, 72h
  10 × LS: ~100 nM
MIA PaCa-2 cells; approximate concentration giving a two-fold reduction in the IC50 of gemcitabine alone, MIA PaCa-2, 72h
  2 × LS: ~3 nM
[2]; listed as free base
  GVS weight loss, initial desorption cycle: 2 wt %
  GVS water gain, subsequent sorption cycle: 8%

## COc1cc(C2(F)CCN(C)CC2)ccc1-c1cc(Nc2cnc(C#N)cn2)n[nH]1 [maleate pattern B, 5-[[5-[4-(4-fluoro-1-methyl-4-piperidyl)-2-methoxy-phenyl]-1H-pyrazol-3-yl]amino]pyrazine-2-carbonitrile]
[1]
  solubility FaSSGF (pH 1.37): 3.97 mg/mL
  solubility FaSSIF (pH 6.71): 0.07 mg/mL
  solubility FeSSIF (pH 5.14): 0.57 mg/mL
[3]; T = 0
  HPLC purity (HPLC method 2): 96.85
[3]; T = 2 weeks, 2-8° C.
  HPLC purity (HPLC method 2): 96.85
[3]; T = 2 weeks, 25° C./60% RH
  HPLC purity (HPLC method 2): 96.99
[3]; T = 2 weeks, 40° C./75% RH
  HPLC purity (HPLC method 2): 96.98
[3]; two weeks at 25° C./60% RH, 40° C./75% RH and 2-8° C., result in words
  stability on storage: stable
other
  Aqueous solubility mg/mL 24 h: 1.4 mg/mL
[2]; 0% RH and 90% RH, result in words
  crystalline form (XRPD) after GVS at extremes of humidity: 0% RH converts to pattern A, 90% RH no change
[2]
  GVS weight loss, initial desorption cycle: 2.5 wt %
  GVS water gain, subsequent sorption cycle: 4%
[4]; 25° C., ambient start
  DVS moisture associated before the first desorption: ca. 2.8 wt %
[4]; between 20 and 30% RH
  DVS main increase in weight, first sorption: ca. 2 wt %
[4]; isolated at 0% RH, then held at 90% RH, result in words
  crystalline form (XRPD) after DVS: mixed phase at 0% RH and pattern B at 90% RH
